The text below walks through data of PubChem BioAssay (NCI).

Values joined by “and” are separate entries in the source; they are usually repeats but may differ in a detail not shown here. Identical values can stand only once.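 96-well plates; 48 h exposure; 5 concentrations. Endpoints by linear interpolation between flanking doses. Not reached: highest tested concentration assigned. At the GI50, growth is halved. TGI: total growth inhibition.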

Among the test systems are SNB-75 CNS; HL-60(TB) leukemia; SK-MEL-2 melanoma; BT-549 breast; NCI-H226 lung; NCI-H23 lung; SW-620 colon; OVCAR-3 ovarian.
Assay in all cases: growth of human tumour cells (NCI), 48 h

`Oc1ccccc1/C=N\NC(=S)Nc1ccc(F)cc1`: the GI50 with SNB-75 CNS is 1.66 µM; in the assay with HL-60(TB) leukemia, 0.906 µM; in the assay on SK-MEL-2 melanoma, 5.96 µM; in the assay with BT-549 breast, 2.35 µM; in the assay with NCI-H226 lung, 2.76 µM; with NCI-H23 lung, 2.37 µM. For the same molecule, the GI50 in the assay on SW-620 colon is 1.17 µM; with OVCAR-3 ovarian, 0.41 µM. The TGI in the assay on SNB-75 CNS is 14.9 µM; in the assay with HL-60(TB) leukemia it was 6.22 µM; in the assay with SK-MEL-2 melanoma it was > 100 µM; in the assay with BT-549 breast it was > 89.9 µM; in the assay with NCI-H226 lung it was > 32.5 µM; in the assay on NCI-H23 lung, > 100 µM. Besides, the results for the TGI in the assay with SW-620 colon and with OVCAR-3 ovarian were > 100 µM and > 69 µM, respectively.
For `COc1cc2c3c(c4cc(OC)c(OC)cc4c2cc1OC)CN1CCC[C@H]1C3`, the GI50 in the assay on SNB-75 CNS was 0.0084 µM; in the assay with HL-60(TB) leukemia it was 0.0853 µM and < 0.0165 µM; in the assay on SK-MEL-2 melanoma, 0.0297 µM and < 0.01 µM; in the assay with NCI-H23 lung, 0.0406 µM and < 0.0123 µM; with SW-620 colon, 0.0734 µM and < 0.0124 µM. Besides, the TGI in the assay with SNB-75 CNS is 0.0663 µM; in the assay with BT-549 breast it was 0.0849 µM and 0.657 µM; in the assay with NCI-H226 lung, 1.06 µM; with NCI-H23 lung, 0.653 µM and 3.4 µM; in the assay with OVCAR-3 ovarian, 0.379 µM and 1.15 µM.
`Cc1cnc(C(=O)Nc2nc3ccc(S(=O)(=O)Nc4ccc(C(C)(C)C)cc4)cc3[nH]2)cn1`: the GI50 is 0.216 µM in the assay on SNB-75 CNS; 0.304 µM with HL-60(TB) leukemia; 1.26 µM with SK-MEL-2 melanoma; 1.12 µM in the assay on BT-549 breast; 0.723 µM in the assay with NCI-H226 lung; 0.606 µM with NCI-H23 lung. The GI50 was 0.422 µM in the assay on SW-620 colon and 0.308 µM in the assay on OVCAR-3 ovarian. The TGI with SNB-75 CNS stood at 1.01 µM; with HL-60(TB) leukemia, 1.07 µM; in the assay on SK-MEL-2 melanoma it was 17.3 µM; in the assay with BT-549 breast, 13.6 µM; with NCI-H226 lung, 7.35 µM; with NCI-H23 lung it was 12.7 µM. Also, the TGI came to 13.9 µM in the assay on SW-620 colon and 1.32 µM with OVCAR-3 ovarian.
Turning to `CSc1ccc(-c2cn3ccsc3n2)cc1`, the GI50 with SNB-75 CNS is 7.76 µM; in the assay with HL-60(TB) leukemia it was 2.42 µM; in the assay on SK-MEL-2 melanoma, 4 µM; with BT-549 breast it was > 60.5 µM; in the assay on NCI-H226 lung, 24.8 µM; in the assay with NCI-H23 lung it was 19.3 µM. Further, the GI50 with SW-620 colon is 14.6 µM; in the assay on OVCAR-3 ovarian, > 28.6 µM. Further, the TGI is 74 µM in the assay on SNB-75 CNS; > 50 µM with HL-60(TB) leukemia; > 92.9 µM with SK-MEL-2 melanoma; > 100 µM in the assay on BT-549 breast; 98.1 µM with NCI-H226 lung; > 100 µM in the assay on NCI-H23 lung. The TGI with SW-620 colon and in the assay with OVCAR-3 ovarian was > 100 µM each time.
With `COc1cc(C(=O)/C=C/c2c[nH]c3ccccc23)cc(OC)c1OC`, the GI50 is 0.0264 µM in the assay with SNB-75 CNS; < 0.0145 µM in the assay on HL-60(TB) leukemia; 0.0392 µM in the assay with SK-MEL-2 melanoma; 0.0288 µM in the assay on BT-549 breast; 0.397 µM in the assay on NCI-H226 lung; 0.0602 µM in the assay on NCI-H23 lung. The figures for the GI50 in the assay with SW-620 colon and in the assay on OVCAR-3 ovarian were < 0.0123 µM and < 0.012 µM, respectively. Also, the TGI is 37.2 µM in the assay with SNB-75 CNS; 0.0422 µM with HL-60(TB) leukemia; 19.2 µM in the assay with SK-MEL-2 melanoma; 4.16 µM with BT-549 breast; 26.8 µM in the assay on NCI-H226 lung; 45.4 µM in the assay with NCI-H23 lung. Also, the TGI in the assay with SW-620 colon is > 100 µM; with OVCAR-3 ovarian it was 0.0488 µM.
Take `CNC(=O)c1sc(-n2cnc3cc(OC)c(OC)cc32)cc1OCc1ccccc1C(F)(F)F`: the GI50 in the assay with SNB-75 CNS is > 15.8 µM; in the assay with HL-60(TB) leukemia it was > 15.8 µM; in the assay with SK-MEL-2 melanoma, > 25 µM; in the assay with BT-549 breast, > 25 µM; in the assay on NCI-H226 lung, 22.9 µM; in the assay with NCI-H23 lung, > 25 µM. For the same molecule, the GI50 with SW-620 colon and in the assay on OVCAR-3 ovarian was > 25 µM each time. Also, the TGI with SNB-75 CNS, with HL-60(TB) leukemia, in the assay on SK-MEL-2 melanoma, with BT-549 breast, in the assay with NCI-H226 lung and in the assay with NCI-H23 lung was > 25 µM in each case. Besides, the TGI with SW-620 colon and in the assay with OVCAR-3 ovarian was > 25 µM each time.
On to `COC(=O)c1sc(-n2cnc3cc(OC)c(OC)cc32)cc1OCc1ccccc1C(F)(F)F`, for which the GI50 was 9.07 µM with SNB-75 CNS; > 25 µM in the assay on HL-60(TB) leukemia; > 19 µM with SK-MEL-2 melanoma; > 25 µM in the assay on BT-549 breast; > 25 µM in the assay on NCI-H226 lung; > 25 µM with NCI-H23 lung. Further, the GI50 with SW-620 colon and in the assay with OVCAR-3 ovarian was > 25 µM each time. The TGI is > 19.6 µM with SNB-75 CNS; > 25 µM with HL-60(TB) leukemia; > 25 µM in the assay with SK-MEL-2 melanoma; > 25 µM in the assay with BT-549 breast; > 25 µM in the assay with NCI-H226 lung; > 25 µM with NCI-H23 lung. The TGI in the assay on SW-620 colon and with OVCAR-3 ovarian was > 25 µM in each case.
In the case of `O=C(O)CN(CCN(CC(=O)O)CC(=O)O)CC(=O)O.[Cu+2].[Na+]`, the GI50 with SNB-75 CNS, in the assay with HL-60(TB) leukemia, in the assay with SK-MEL-2 melanoma, in the assay on BT-549 breast, in the assay with NCI-H226 lung and with NCI-H23 lung was > 100 µM in each case. Also, the GI50 with SW-620 colon is > 100 µM; in the assay on OVCAR-3 ovarian it was 19.2 µM. In addition, the TGI in the assay on SNB-75 CNS, in the assay on HL-60(TB) leukemia, in the assay with SK-MEL-2 melanoma, in the assay on BT-549 breast, with NCI-H226 lung and in the assay with NCI-H23 lung was > 100 µM in each case. For the same molecule, the TGI with SW-620 colon was > 100 µM; in the assay on OVCAR-3 ovarian, 51.8 µM.
For `CCOC(=O)Nc1cc2c(c(N)n1)N=C(c1ccc(Cl)cc1Cl)CN2`, the TGI was 36.5 µM in the assay on SNB-75 CNS; 0.0585 µM in the assay on HL-60(TB) leukemia; 19.7 µM with SK-MEL-2 melanoma; 33.1 µM with BT-549 breast; 18 µM in the assay with NCI-H226 lung; 27.5 µM in the assay on NCI-H23 lung. Also, the values for the TGI with SW-620 colon and in the assay on OVCAR-3 ovarian were 30.4 µM and 0.0133 µM, respectively.
Turning to `O=C1c2ccc3c4c(ccc(c24)C(=O)N1CCCCO)C(=O)N(CCCCO)C3=O`, the GI50 in the assay on SNB-75 CNS was 3.12 µM; in the assay with HL-60(TB) leukemia, 2.07 µM; in the assay on SK-MEL-2 melanoma, 1.84 µM; with BT-549 breast, 4.82 µM; in the assay on NCI-H226 lung, 3.45 µM; in the assay with NCI-H23 lung, 1.6 µM. Also, the GI50 is 1.86 µM in the assay with SW-620 colon and 0.408 µM in the assay on OVCAR-3 ovarian. Besides, the TGI in the assay on SNB-75 CNS was 13.6 µM; with HL-60(TB) leukemia, 7.43 µM; with SK-MEL-2 melanoma, 6.88 µM; in the assay on BT-549 breast it was 17.4 µM; with NCI-H226 lung, 15.5 µM; with NCI-H23 lung, 5.17 µM. For the same molecule, the TGI in the assay on SW-620 colon was 10.1 µM; in the assay with OVCAR-3 ovarian it was 2.31 µM.
In the case of `COc1oc(C2C/C(=C/C(C)=C/C(C)=C/C(C)=C/c3ccc([N+](=O)[O-])cc3)CO2)c(C)c(=O)c1C` (configuration not stated), the TGI with SNB-75 CNS was > 57.5 µM; in the assay with HL-60(TB) leukemia it was 8.13 µM; in the assay with SK-MEL-2 melanoma, > 75.8 µM; in the assay on BT-549 breast, 17.4 µM; with NCI-H226 lung, > 54.3 µM; in the assay with NCI-H23 lung, 31.4 µM. Besides, the figures for the TGI with SW-620 colon and in the assay with OVCAR-3 ovarian were > 100 µM and 54.9 µM, respectively.
As to `COc1cccc(/C=C\C(=O)c2ccccc2)c1`, the GI50 with SNB-75 CNS is 8.9 µM; in the assay on HL-60(TB) leukemia it was 5.98 µM; in the assay with SK-MEL-2 melanoma it was 18 µM; in the assay with BT-549 breast it was 10.8 µM; in the assay with NCI-H226 lung, 16.6 µM; in the assay on NCI-H23 lung it was 10.4 µM. Also, the GI50 with SW-620 colon is 2.7 µM; in the assay on OVCAR-3 ovarian, 3.04 µM. For the same molecule, the TGI in the assay on SNB-75 CNS is 23 µM; in the assay on HL-60(TB) leukemia it was > 100 µM; with SK-MEL-2 melanoma, 34.8 µM; with BT-549 breast, 24.3 µM; in the assay on NCI-H226 lung it was 32.9 µM; in the assay on NCI-H23 lung, 44.8 µM. Further, the TGI in the assay on SW-620 colon was found to be 7.31 µM; in the assay with OVCAR-3 ovarian, 13.4 µM.
In the case of `Cc1ccc(C)c(N2CCN(c3ccncc3N)CC2)c1`, the GI50 in the assay with SNB-75 CNS was 16.6 µM; in the assay on HL-60(TB) leukemia it was 15.9 µM; with SK-MEL-2 melanoma, 15.6 µM; in the assay with BT-549 breast, 21.9 µM; in the assay with NCI-H226 lung it was 17.2 µM; in the assay with NCI-H23 lung it was 12.1 µM. Moreover, the GI50 is 5.13 µM with SW-620 colon and 12.2 µM in the assay with OVCAR-3 ovarian. Besides, the TGI in the assay on SNB-75 CNS was 59 µM; with HL-60(TB) leukemia, 54.9 µM; in the assay on SK-MEL-2 melanoma, 31.2 µM; in the assay with BT-549 breast, > 100 µM; in the assay with NCI-H226 lung, 67 µM; with NCI-H23 lung, 61 µM. Besides, the values for the TGI in the assay on SW-620 colon and in the assay with OVCAR-3 ovarian were 24.6 µM and 58.8 µM, respectively.
In the case of `CC/C(=C/c1ccc(OC)cc1)[N+](=O)[O-]`, the GI50 with SNB-75 CNS is 2.83 µM; in the assay with HL-60(TB) leukemia, 1.89 µM; in the assay with SK-MEL-2 melanoma it was 2.02 µM; in the assay with BT-549 breast, 2.42 µM; in the assay on NCI-H226 lung, 2.07 µM; in the assay with NCI-H23 lung, 2.15 µM. Besides, the GI50 was 1.93 µM with SW-620 colon and 1.86 µM in the assay on OVCAR-3 ovarian. Also, the TGI with SNB-75 CNS was determined as 15 µM; with HL-60(TB) leukemia, 5.47 µM; in the assay on SK-MEL-2 melanoma, 4.62 µM; in the assay with BT-549 breast, 6.42 µM; in the assay with NCI-H226 lung, 3.86 µM; with NCI-H23 lung, 5.74 µM. Further, the results for the TGI in the assay on SW-620 colon and with OVCAR-3 ovarian were 3.85 µM and 3.35 µM, respectively.
